Source: patent publication US20220313728A1 (priority 2021, published 2022)
“Also recorded” adds a separate entry of the source.

Key:
[1] = test system: adult and geriatric patients, milder depression; assay: Gibbons et al. 2012 synthesis of 37 placebo controlled double-blind randomized trials, HDRS-17 outcome; type: in vivo, human; conditions: 6 weeks; converted from HDRS-17 with the 24% increased range of the 21 item scale; pooled fluoxetine and venlafaxine
[2] = test system: adult and geriatric patients, milder depression; conditions: 6 weeks; pooled data of 37 trials of fluoxetine and venlafaxine; cited from earlier work
[3] = test system: patients with severe TRMD; assay: Phase 2 double-blind randomized placebo-controlled crossover trial, single 1-hour inhalation; Hamilton Depression Rating Scale (HDRS-21, primary outcome); type: in vivo, human; conditions: for Estimated difference between 25% and placebo (HDRS-21) / Estimated difference between 50% and placebo (HDRS-21): single 1-hour inhalation; for Difference vs placebo (HDRS-21): 2 weeks, following a single treatment; for Estimated difference between 50% and 25% (HDRS-21): 50% vs 25% nitrous oxide; for Patients in remission (HDRS ≤7 points) / Patients with treatment response (reduction in HDRS-21 points ≥50%): pre-treatment HDRS-21 >19; for Estimated difference between placebo and the combined 25% and 50% groups (HDRS-21): combined 25% and 50% nitrous oxide
Excerpt: (§1) The study was a single-center, double-blind, randomized placebo-controlled crossover trial. All subjects underwent three one-hour inhalation sessions in random order, each separated by at least 4 weeks. The sessions included: placebo (0% N20), 25% N20, and 50% N20 balanced with air/oxygen. Blinding was executed by separating locations and teams for inhalation treatments and psychiatric evaluations. Only the anesthesia team administering the inhalation treatments was aware of study group assignment; all other participants, including patients and raters, were blinded. Likewise, the study setup was identical for all sessions, and gas flow meters were concealed, making inadvertent unblinding unlikely. The study was approved by the Washington University in St. Louis Institutional Review Board, and all patients provided written, informed consent. The trial was registered at clinicaltrials.gov (NCT03283670).
Patients were recruited from an existing database of TRMD patients identified through participation in a secondary referral clinic for TRMD at Washington University Department of Psychiatry, as well as from the “Volunteers for Health” patient pool (individuals with various medical/psychiatric conditions who volunteer to participate in clinical research) within Washington University School of Medicine. […] Patients were instructed to continue their current standard of care MDD treatment and to maintain a stable psychotropic medication dosage or psychotherapy regimen for 4 weeks prior to initiation of the study and throughout the study. Further, patients were instructed not to modify their antidepressant treatments during the three month course of the trial (i.e., discouraged from adding new antidepressants or modifying existing antidepressant dosages).
Following the in-person screen, each of the three treatment sessions consisted of […]: pre-inhalation mood assessment, inhalation, and post-inhalation follow-up sessions at 22-28 hours, 1 week, and 2 weeks. An additional assessment was completed 4 weeks following the final inhalation treatment.
(§2) All three inhalation sessions were scheduled for one hour. […] Except for the choice of inhalational gas admixture, treatment sessions were otherwise identical. The gas mix was administered via a standard anesthesia facemask through tubing connected to the anesthesia machine or an FDA-approved Porter/Praxair MXR breathing circuit. A small sample connector line was inserted into the facemask allowing the measurement of inhaled and exhaled gas concentrations. […] Patients were monitored during and after the treatment according to American Society of Anesthesiologists standards which include continuous 3-lead ECG, pulse oximetry, non-invasive blood pressure, and end tidal CO2 measurement under the supervision of an attending-level anesthesiologist. After the one-hour treatment session, patients were monitored in a recovery room for up to one hour at which time a study team physician determined whether the patient met criteria for discharge.
(§3) Data were collected at (a) baseline (prior to each inhalation session), (b) 2-hours, (c) 24 hours, (d) 1 week, and (e) 2 weeks after inhalation. Efficacy of the inhalation treatment on mood was measured using the following: Hamilton Depression Rating Scale 21-item (HDRS-21; primary outcome); Montgomery-Asberg Depression Rating Scale (MADRS); Quick Inventory of Depressive Symptomology-Self Report (QIDS-SR); and the Profile of Mood States 2nd Edition (POMS-2). Other behavioral assessments included an assessment of dissociation, the Clinical Administered Dissociative States Scale 28-item (CADSS-28); and an assessment for the emergence of psychosis, the Brief Psychiatric Rating Scale 18-item (BPRS-18). These mood and behavioral assessments were performed by a blinded member of the psychiatry study team. Additionally, adequacy of the blind was assessed by a Blinding Questionnaire given after completion of each inhalation session.

[4] = test system: bothersome tinnitus; conditions: similar clinical trial; 85% of patients correctly guessed the treatment arm; cited from earlier work
[5] = test system: patients with severe TRMD; assay: Same trial; treatment safety, monitoring of adverse events; conditions: for Stomach virus: >24 hours after inhalation session, count (%)
Excerpt: as §1, §2
as §3, with “session. Treatment safety was assessed by monitoring adverse events (AEs) related to (a) cardiovascular status; (b) respiratory function; (c) central nervous system; and (d) psychiatric symptoms, particularly the presence of psychotic symptoms.” for “session.”
Finally, we also tested for a linear dose-response relation. Differences between categorical outcomes (response, remission) were tested by Fisher-Exact test; relative risk and 95% confidence intervals were calculated using the Koopman asymptotic score. Differences in the count of adverse events were compared by the Kruskal-Wallis test. All reported p-values are two-sided and a p-value of <0.05 was considered statistically significant. All analyses were conducted using SuperMix (Scientific Software International, Lincolnwood Ill.).

[6] = test system: patients with TRMD; conditions: 50% nitrous oxide, one one-hour inhalation; cited from earlier work
[7] = test system: patients with severe TRMD; assay: Same trial; Profile of Mood States 2nd Edition (POMS-2); type: in vivo, human
Excerpt: (§4) The trial was registered at clinicaltrials.gov (NCT03283670).
(§5) Patients were recruited from an existing database of TRMD patients identified through participation in a secondary referral clinic for TRMD at Washington University Department of Psychiatry, as well as from the “Volunteers for Health” patient pool (individuals with various medical/psychiatric conditions who volunteer to participate in clinical research) within Washington University School of Medicine. Inclusion criteria were a) adults 18-75 years of age; b) current diagnosis of unipolar major depressive disorder (MDD) without psychosis as confirmed by the Mini International Neuropsychiatric Interview; c) a score of ≥19 on the Montgomery-Asberg Depression Rating Scale (MADRS); d) documented lifetime failure to respond to ≥3 adequate dose/duration antidepressant treatment trials, including ≥1 antidepressant medication failure(s) in the current depressive episode; and e) good command of the English language. […] Patients were instructed to continue their current standard of care MDD treatment and to maintain a stable psychotropic medication dosage or psychotherapy regimen for 4 weeks prior to initiation of the study and throughout the study. […]

[8] = test system: patients with severe TRMD; assay: Same trial; Quick Inventory of Depressive Symptomology-Self Report (QIDS-SR); type: in vivo, human
Excerpt: as §4, §5

[9] = test system: Major Depressive Disorder; conditions: 50% nitrous oxide; cited from earlier work
[10] = test system: patients with severe TRMD; assay: Same trial; Montgomery-Asberg Depression Rating Scale (MADRS); type: in vivo, human; conditions: 25% nitrous oxide
Excerpt: as §4, §5

[11] = after 50% nitrous oxide, 5/12 patients

Structure (SMILES): CNCCC(Oc1ccc(C(F)(F)F)cc1)c1ccccc1 (centres unmarked) [fluoxetine]
- Equivalent difference on the HDRS-21 [1]: −3.16 unit
- Estimated separation between active treatment and placebo control (HDRS-17) [2]: −2.55 HDRS-17 units

Structure (SMILES): [N-]=[N+]=O [nitrous oxide]
- Estimated difference between 25% and placebo (HDRS-21) ([3]; 25% nitrous oxide, 2 hours): −0.75 points
- Estimated difference between 25% and placebo (HDRS-21) ([3]; 25% nitrous oxide, 24 hours): −1.41 points
- Estimated difference between 25% and placebo (HDRS-21) ([3]; 25% nitrous oxide, week 1): −4.35 points
- Estimated difference between 25% and placebo (HDRS-21) ([3]; 25% nitrous oxide, week 2): −5.19 points
- Difference vs placebo (HDRS-21) ([3]; 25% nitrous oxide): −5.19 units
- Effect size d, 25% vs placebo (HDRS-21) ([3]; 25% nitrous oxide, 2 hours): 0.16
- Effect size d, 25% vs placebo (HDRS-21) ([3]; 25% nitrous oxide, 24 hours): 0.21
- Effect size d, 25% vs placebo (HDRS-21) ([3]; 25% nitrous oxide, week 1): 0.38
- Effect size d, 25% vs placebo (HDRS-21) ([3]; 25% nitrous oxide, week 2): 0.62
- Estimated difference between 50% and placebo (HDRS-21) ([3]; 50% nitrous oxide, 2 hours): −0.87 points
- Estimated difference between 50% and placebo (HDRS-21) ([3]; 50% nitrous oxide, 24 hours): −1.93 points
- Estimated difference between 50% and placebo (HDRS-21) ([3]; 50% nitrous oxide, week 1): −2.44 points
- Estimated difference between 50% and placebo (HDRS-21) ([3]; 50% nitrous oxide, week 2): −7.00 points
- Difference vs placebo (HDRS-21) ([3]; 50% nitrous oxide): −7.00 HDRS-21 units
- Effect size d, 50% vs placebo (HDRS-21) ([3]; 50% nitrous oxide, 2 hours): 0.29
- Effect size d, 50% vs placebo (HDRS-21) ([3]; 50% nitrous oxide, 24 hours): 0.32
- Effect size d, 50% vs placebo (HDRS-21) ([3]; 50% nitrous oxide, week 1): 0.35
- Effect size d, 50% vs placebo (HDRS-21) ([3]; 50% nitrous oxide, week 2): 0.85
- Estimated difference between 50% and 25% (HDRS-21) ([3]; 2 hours): 0.11 points
- Estimated difference between 50% and 25% (HDRS-21) ([3]; 24 hours): 0.42 points
- Estimated difference between 50% and 25% (HDRS-21) ([3]; week 1): 1.91 points
- Estimated difference between 50% and 25% (HDRS-21) ([3]; week 2): −1.67 points
- Patients in remission (HDRS ≤7 points) ([3]; after 25% nitrous oxide, 2/9 patients): 22.2%
- Patients with treatment response (reduction in HDRS-21 points ≥50%) ([3]; after 25% nitrous oxide, 3/9 patients): 33.3%
- Patients in remission (HDRS ≤7 points) [3, 11]: 41.7%
- Patients with treatment response (reduction in HDRS-21 points ≥50%) [3, 11]: 41.7%
- Estimated difference between placebo and the combined 25% and 50% groups (HDRS-21) ([3]; 2 hours): −0.81 points
- Estimated difference between placebo and the combined 25% and 50% groups (HDRS-21) ([3]; 24 hours): −1.67 points
- Estimated difference between placebo and the combined 25% and 50% groups (HDRS-21) ([3]; week 1): −3.35 points
- Estimated difference between placebo and the combined 25% and 50% groups (HDRS-21) ([3]; week 2): −6.13 points
- Median HDRS-21 score at study completion ([3]; entire 3-month course (25%, 50% nitrous oxide and placebo sessions), completers n=20, baseline median 20.5): 8.5 (IQR 2.0-16.0)
- Median change in HDRS-21 from baseline to study completion ([3]; entire 3-month course (25%, 50% nitrous oxide and placebo sessions), n=20, IQR −3.3 to −14.0): −11.0 points
- Patients in remission at study completion (HRDS≤7 points) ([3]; entire 3-month course, n=20, 8/20): 40%
- Patients with treatment response at study completion (reduction in HRDS-21 points ≥50%) ([3]; entire 3-month course, n=20, 11/20): 55%
- Patients with improvement in depressive symptoms by at least one category at study completion ([3]; entire 3-month course, n=20, 17/20): 85%
- Median reduction of HDRS-21 ([3]; entire 3-month treatment regimen with 2 treatments with nitrous oxide): 11 HDRS-21 points
- Dose-response relation (HDRS-21 decrease) ([3]; week 2): −3.51 per 25% increase in dose
- Treatment effect for bothersome tinnitus [4]: did not observe a treatment effect
- Stomach virus ([5]; 25% N2O (n = 20)): 0
- Stomach virus ([5]; 50% N2O (n = 23)): 0
- Car Crash (minor) ([5]; human, in vivo): 1 (4%)
- Fainting Spell ([5]; human, in vivo): 1 (4%)
- Haziness ([5]; human, in vivo): 3 (13%)
- Haziness ([5]; human, in vivo, 1 h): 1(5%)
- Serious adverse events ([5]; in vivo): None
- Effect on depressive symptoms in patients with TRMD (earlier study) [6]: improved depressive symptoms; also recorded: rapid antidepressant effects
- Results on the POMS scale ([7]; 25% nitrous oxide): non-significant
- Results on the POMS scale ([7]; 50% nitrous oxide): significant at 2 weeks
- Results on the QIDS scale ([8]; 25% nitrous oxide): non-significant; also recorded: not statistically significant
- Results on the QIDS scale ([8]; 50% nitrous oxide, except at 2 weeks): not statistically significant
- Persistence of efficacy after a single inhalation (case report) [9]: beyond one month
- MADRS efficacy [10]: not significant

Structure (SMILES): COc1ccc(C(CN(C)C)C2(O)CCCCC2)cc1 (centres unmarked) [venlafaxine]
- Equivalent difference on the HDRS-21 [1]: −3.16 unit
- Estimated separation between active treatment and placebo control (HDRS-17) [2]: −2.55 HDRS-17 units
